Results on 1 molecule are retold here after patent US12552798B2, “Substituted imidazolecarboxamide as Bruton's tyrosine kinase inhibitors” (Henan Zhiwei Biomedicine Co., Ltd., priority 2019, dated 2026).

Data set [1] deals with ITK (Homo sapiens (Human), UniProt Q08881). Description: ITK kinase inhibitory assay (ELISA). The class given is biochemical. The protocol:
(§1) BTK, EGFR, BMX, or ITK Inhibitory Assay Procedure for BTK, BMX, EGFR and ITK Inhibitory Assay:
(§2) Kinase inhibitory activities of compounds were evaluated using the Enzyme-linked immunosorbent assay (ELISA). The kinase enzyme of BTK, BMX, EGFR and ITK were purchased from Carna Bioscience (Kobe, Japan). A total of 10 ng/mL antiphosphotyrosine (PY713) antibody (abcam, Cambridge Science Park, UK) was precoated in 96-well ELISA plates. The kinase enzymes in each reaction well were set to BTK (101.25 ng/mL), BMX (90 ng/mL), EGFR (90 ng/mL) or ITK (120 ng/mL) and incubated with indicated compounds in 1× reaction buffer (50 mmol/L HEPES pH 7.4, 20 mmol/L MgCl2, 0.1 mmol/L MnCl2, 1 mmol/L DTT) containing 20 μmol/L (the final concentration of substrate in ITK reaction was 30 μmol/L) substrate (NH2-ETVYSEVRK-biotin) at 25° C. for 1 h. Then, a total of 3 μmol/L ATP was added and the reaction was continued for 2 hrs. The products of reaction were transferred into 96-well ELISA plates containing antibody and incubated at 25° C. for 30 min. After incubation, the wells were washed with PBS and then incubated with horseradish peroxidase […]-conjugated streptavidin. The wells were visualized using 3,3′,5,5′-tetramethylbenzidine (TMB), and chromogenic reaction was ended with 2 mol/L H2SO4, the absorbance was read with a multimode plate reader (PerkinElmer, USA) at 450 nm. IC50 values and curve fits were obtained using Prism (GraphPad Software).

The subject of data set [2] is 293T. Description: Cell antiproliferative activity assay (CellTiter-Glo), 293T. The class given is cell-based. The conditions noted are these: Homo sapiens, HEK-293T, 72 hs, read-out: Cell Growth IC50 (nM) 293T. The method, then: (§3) Cell Antiproliferative Activity Assay
(§4) Cell antiproliferative activity was evaluated by the CellTiter-Glo (Promega, USA) assay. Make 1000× compounds solution in DMSO, add 1 μl 1000× compounds to […] growth medium to make 20× compounds. Dilute cell suspensions in growth medium to desired density and 95 μl were taken to 96-well plate. Add 5 μl 20× compounds into 96-well plate according to the plate map. Final DMSO concentration in each well was 0.1%. Then the cell was incubated at 37° C., 5% CO2 for 72 hs. Equilibrate the assay plate to room temperature before measurement. Add 20 μl of CellTiter-Glo© Reagent into each well. Mix contents for 2 minutes on an orbital shaker to induce cell lysis. Incubate at room temperature for 10 minutes to stabilize luminescent signal. Record luminescence using EnVision Multilabel Reader (PerkinElmer). Cell viability (CV %) was calculated relative to vehicle (DMSO) treated control wells using following formula: Cell viability (%)=(RLU compound−RLU blank)/(RLU control−RLU blank)*100%. The IC50 values were calculated using GraphPad Prism 6.0 software, fitting to a 4-parameter equation to generate concentration response curves. All assays were conducted with three parallel samples and three repetitions.
In general terms: In ATP-based viability assays light output follows the ATP content of the culture.

The target of data set [3] is BTK (Homo sapiens (Human), UniProt Q06187). The data set is described as follows: BTK kinase inhibitory assay (ELISA). The following applies: 3 μmol/L ATP. The format is biochemical. The protocol:
as §1, §2
In general terms: In an ELISA, binding on a coated surface is turned into a signal by an enzyme label.

A short description of data set [4]: PK properties assay in SD rats. The conditions noted are these: rat, plasma. The class given is in vivo. The protocol: Six SD rats were divided into two groups, and compound was administered by gavage and tail vein injection. The intravenous injection group was administered 2 min, 5 min, 15 min, 30 min, 1 h, 2 h, 4 h, 6 h, 8 h, and 12 h after administration. 0.25 mL of blood samples were collected from the posterior orbital venous plexus at 5 min, 15 min, 30 min, 1 h, 2 h, 4 h, 6 h, 8 h, 12 h, and 24 h after administration. LC-MS/MS method was used to determine the concentration of compound in plasma samples from SD rats, and the pharmacokinetic parameters were calculated using WinNolin software.

Data set [5] has as its system MOLM-13. Description: Cell antiproliferative activity assay (CellTiter-Glo), MOLM-13. The class given is cell-based. The conditions noted are these: Homo sapiens; MOLM-13, 72 hs; read-out: Cell Growth IC50 (nM) MOLM-13. The protocol: as §3, §4
The target of data set [6] is EGFR (Homo sapiens (Human), UniProt P00533). Description: EGFR kinase inhibitory assay (ELISA). The class given is biochemical. The method, then: as §1, §2
Chain of EGFR (P00533 25-1210): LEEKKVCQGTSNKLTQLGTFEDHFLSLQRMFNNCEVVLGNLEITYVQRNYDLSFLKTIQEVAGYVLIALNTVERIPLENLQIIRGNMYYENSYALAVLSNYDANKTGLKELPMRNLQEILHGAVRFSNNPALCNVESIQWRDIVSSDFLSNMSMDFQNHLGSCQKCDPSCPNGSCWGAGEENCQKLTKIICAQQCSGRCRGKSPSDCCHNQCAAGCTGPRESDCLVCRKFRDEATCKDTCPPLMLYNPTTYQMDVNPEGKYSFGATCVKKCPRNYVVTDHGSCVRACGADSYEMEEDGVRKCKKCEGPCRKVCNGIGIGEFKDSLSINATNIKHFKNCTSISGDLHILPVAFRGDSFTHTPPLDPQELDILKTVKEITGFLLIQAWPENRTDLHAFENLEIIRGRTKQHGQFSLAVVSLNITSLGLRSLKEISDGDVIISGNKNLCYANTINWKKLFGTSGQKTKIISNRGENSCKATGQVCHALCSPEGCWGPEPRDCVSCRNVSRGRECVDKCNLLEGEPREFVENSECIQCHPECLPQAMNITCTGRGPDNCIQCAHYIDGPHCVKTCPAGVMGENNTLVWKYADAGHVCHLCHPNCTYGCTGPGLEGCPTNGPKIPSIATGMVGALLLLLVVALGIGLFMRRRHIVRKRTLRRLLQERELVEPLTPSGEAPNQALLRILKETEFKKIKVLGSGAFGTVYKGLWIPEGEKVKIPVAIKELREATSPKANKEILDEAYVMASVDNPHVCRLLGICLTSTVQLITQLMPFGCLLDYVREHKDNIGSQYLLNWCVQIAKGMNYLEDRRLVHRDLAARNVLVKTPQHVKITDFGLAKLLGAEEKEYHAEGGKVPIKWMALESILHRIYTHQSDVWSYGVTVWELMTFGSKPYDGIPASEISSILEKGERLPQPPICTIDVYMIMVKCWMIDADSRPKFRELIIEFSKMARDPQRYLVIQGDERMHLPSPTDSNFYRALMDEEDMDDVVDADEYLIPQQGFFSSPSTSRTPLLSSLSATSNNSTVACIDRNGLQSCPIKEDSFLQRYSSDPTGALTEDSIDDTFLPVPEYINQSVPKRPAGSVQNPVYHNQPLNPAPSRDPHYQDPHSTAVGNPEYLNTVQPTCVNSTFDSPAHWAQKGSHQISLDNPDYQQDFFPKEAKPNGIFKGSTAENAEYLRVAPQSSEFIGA
Data set [7] concerns Ramos. The data set is described as follows: Cell antiproliferative activity assay (CellTiter-Glo), Ramos. The format is cell-based. The following applies: 72 hs, read-out: Cell Growth IC50 (nM) Ramos. The method, then:
as §3, §4

Data set [8] concerns the target BMX (Homo sapiens (Human), UniProt P51813). The data set is described as follows: BMX kinase inhibitory assay (ELISA). The class given is biochemical. The method, then:
as §1, §2

In data set [9] the test system is TMD8. The data set is described as follows: Cell antiproliferative activity assay (CellTiter-Glo), TMD8. The class given is cell-based. The following applies: TMD8, 72 hs; read-out: Cell Growth IC50 (nM) TMD8. The protocol: as §3, §4

Chain of BTK (Q06187 whole entry): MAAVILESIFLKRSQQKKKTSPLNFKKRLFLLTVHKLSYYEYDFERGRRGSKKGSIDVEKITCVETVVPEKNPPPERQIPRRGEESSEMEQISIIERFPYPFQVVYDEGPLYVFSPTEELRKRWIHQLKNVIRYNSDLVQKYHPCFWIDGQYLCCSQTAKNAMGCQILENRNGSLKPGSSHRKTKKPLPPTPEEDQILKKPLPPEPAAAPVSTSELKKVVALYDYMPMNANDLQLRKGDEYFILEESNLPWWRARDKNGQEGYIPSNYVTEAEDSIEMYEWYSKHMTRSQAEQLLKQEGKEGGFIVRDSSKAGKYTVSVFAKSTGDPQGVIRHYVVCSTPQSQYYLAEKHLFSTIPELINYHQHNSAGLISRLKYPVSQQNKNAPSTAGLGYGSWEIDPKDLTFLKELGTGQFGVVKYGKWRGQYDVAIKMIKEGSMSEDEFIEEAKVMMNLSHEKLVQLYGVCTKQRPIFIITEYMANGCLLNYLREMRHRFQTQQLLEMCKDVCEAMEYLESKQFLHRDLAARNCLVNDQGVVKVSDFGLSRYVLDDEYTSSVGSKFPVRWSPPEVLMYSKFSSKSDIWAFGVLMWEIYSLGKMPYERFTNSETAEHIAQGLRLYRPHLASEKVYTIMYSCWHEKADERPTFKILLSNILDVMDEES
Chain of ITK (Q08881 whole entry): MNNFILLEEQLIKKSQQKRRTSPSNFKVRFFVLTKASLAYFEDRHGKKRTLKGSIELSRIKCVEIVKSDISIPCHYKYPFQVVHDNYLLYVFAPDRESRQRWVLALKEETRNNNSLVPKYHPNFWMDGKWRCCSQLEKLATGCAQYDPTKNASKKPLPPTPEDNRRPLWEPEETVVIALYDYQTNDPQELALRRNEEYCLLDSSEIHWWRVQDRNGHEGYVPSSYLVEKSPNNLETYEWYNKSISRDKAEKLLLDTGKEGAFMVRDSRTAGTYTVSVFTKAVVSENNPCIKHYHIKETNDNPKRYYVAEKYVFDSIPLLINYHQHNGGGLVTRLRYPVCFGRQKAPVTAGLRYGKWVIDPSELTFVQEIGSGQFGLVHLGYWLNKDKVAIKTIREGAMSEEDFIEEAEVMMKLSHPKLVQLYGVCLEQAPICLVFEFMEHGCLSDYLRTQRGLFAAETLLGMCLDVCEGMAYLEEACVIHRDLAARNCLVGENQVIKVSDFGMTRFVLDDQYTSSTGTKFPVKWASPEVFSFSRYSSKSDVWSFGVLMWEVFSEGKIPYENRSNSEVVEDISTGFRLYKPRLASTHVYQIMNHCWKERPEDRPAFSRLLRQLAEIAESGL
Chain of BMX (P51813 whole entry): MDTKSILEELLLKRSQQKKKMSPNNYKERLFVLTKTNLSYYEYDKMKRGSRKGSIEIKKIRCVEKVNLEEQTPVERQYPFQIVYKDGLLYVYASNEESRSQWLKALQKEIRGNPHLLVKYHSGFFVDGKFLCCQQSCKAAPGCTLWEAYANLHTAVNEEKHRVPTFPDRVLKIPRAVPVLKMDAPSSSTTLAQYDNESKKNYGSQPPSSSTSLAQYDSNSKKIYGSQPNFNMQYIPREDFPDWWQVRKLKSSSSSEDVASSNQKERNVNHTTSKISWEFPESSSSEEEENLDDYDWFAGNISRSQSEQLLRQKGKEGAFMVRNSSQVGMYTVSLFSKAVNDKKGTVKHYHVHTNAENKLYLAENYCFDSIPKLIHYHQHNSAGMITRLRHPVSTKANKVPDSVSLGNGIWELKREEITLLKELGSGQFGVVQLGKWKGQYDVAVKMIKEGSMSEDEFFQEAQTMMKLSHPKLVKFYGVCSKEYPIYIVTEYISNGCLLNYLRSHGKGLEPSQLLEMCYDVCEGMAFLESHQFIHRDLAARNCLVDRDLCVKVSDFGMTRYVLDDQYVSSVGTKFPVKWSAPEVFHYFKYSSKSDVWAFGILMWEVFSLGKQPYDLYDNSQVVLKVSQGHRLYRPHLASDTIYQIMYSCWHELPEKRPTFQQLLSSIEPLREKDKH

For orientation: IC50 means the concentration at which inhibition is half-maximal. As a reminder, the Vd is a proportionality between amount in the body and measured concentration, not a real space. A higher Vd goes with wide distribution into tissue. By clearance is commonly meant a measure of how efficiently the substance is removed, as volume per time. Lower therefore signals a low capacity for elimination. Usually half-life stands for the time needed for the level to fall by half in the phase considered. A low value points to fast loss. As a reminder, the AUC is concentration integrated over time. Higher therefore signals more exposure. What is called Cmax is the highest concentration seen after dosing. One may read the bioavailability as the share of a dose that reaches the circulation, judged against a reference dose that is usually intravenous. Low values mean poor availability, high ones good availability. For the molecule `NC(=O)c1c(-c2ccc(Oc3ccccc3)cc2)nc2n1NCCC2C1CCN(C(=O)/C=C/C(F)(F)F)CC1` (single isomer, unassigned) [10a (peak 1)], the IC50 is 2.02 µM in data set [1] (ELISA, 3 μmol/L ATP); 1010 nM in data set [2]; 0.0067 µM in data set [3]; 3150 nM in data set [5]; 2.45 µM in [6] (ELISA, 3 μmol/L ATP); 1270 nM in data set [7]. Moreover, the IC50 was determined as 0.0209 µM in [8] (ELISA, 3 μmol/L ATP) and 16.5 nM in data set [9]. The “Selectivity Ratio (BTK and ITK)” value in data set [1] (ITK IC50 relative to BTK IC50) is given as 301.5. The molecule also came in with a Vd in data set [4] (iv 5 mg/kg) of 1.6 L/kg. Further, the clearance in [4] (iv 5 mg/kg) was found to be 59.8 mL/min/kg. Also, the half-life in [4] (iv 5 mg/kg) is 18.6 min; in data set [4] (po 5 mg/kg) it was 87 min. Moreover, the AUC in data set [4] (po 5 mg/kg) is 1390 ng·h/mL. Moreover, the highest concentration (Cmax) in data set [4] (po 5 mg/kg) came to 703 ng/mL. In addition, the bioavailability in [4] (po 5 mg/kg) is 47.2%. The “Selectivity Ratio (BTK and EGFR)” value in data set [6] (EGFR IC50 relative to BTK IC50) came to 365.37. Besides, in data set [8] (BMX IC50 relative to BTK IC50), the “Selectivity Ratio (BTK and BMX)” value was 3.12.
